From doi:10.64898/2025.12.15.694265, “Small molecule inhibitor of PPARγ acetylation promotes insulin sensitization and browning of white adipose tissue with improved safety” (bioRxiv, 2025)

Key:
PPARγ [1] = biological target: T1, PPARγ (Homo sapiens, UniProt P37231); assay: X-ray co-crystal structure at […] Å; fluorescence polarization competition binding with GST-tagged LBD
T1 construct: gene PPARG
T1 sequence (P37231 223-505): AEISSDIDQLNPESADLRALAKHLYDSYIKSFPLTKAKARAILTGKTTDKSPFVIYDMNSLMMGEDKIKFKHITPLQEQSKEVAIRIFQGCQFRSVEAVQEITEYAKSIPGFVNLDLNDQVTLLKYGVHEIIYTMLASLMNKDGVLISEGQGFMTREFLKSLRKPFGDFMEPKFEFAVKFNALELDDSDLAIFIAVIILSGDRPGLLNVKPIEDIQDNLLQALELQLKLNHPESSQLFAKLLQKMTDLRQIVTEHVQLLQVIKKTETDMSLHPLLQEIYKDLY

PPARγ [2] = biological target: T2, PPARγ (Homo sapiens, UniProt P37231); assay: 3xPPRE luciferase reporter in HEK293 cells, antagonism of Rosi activation; type: cell-based
T2 construct: gene PPARG; human PPARγ2 expressed in HEK-293 cells
T2 sequence (P37231 1-505): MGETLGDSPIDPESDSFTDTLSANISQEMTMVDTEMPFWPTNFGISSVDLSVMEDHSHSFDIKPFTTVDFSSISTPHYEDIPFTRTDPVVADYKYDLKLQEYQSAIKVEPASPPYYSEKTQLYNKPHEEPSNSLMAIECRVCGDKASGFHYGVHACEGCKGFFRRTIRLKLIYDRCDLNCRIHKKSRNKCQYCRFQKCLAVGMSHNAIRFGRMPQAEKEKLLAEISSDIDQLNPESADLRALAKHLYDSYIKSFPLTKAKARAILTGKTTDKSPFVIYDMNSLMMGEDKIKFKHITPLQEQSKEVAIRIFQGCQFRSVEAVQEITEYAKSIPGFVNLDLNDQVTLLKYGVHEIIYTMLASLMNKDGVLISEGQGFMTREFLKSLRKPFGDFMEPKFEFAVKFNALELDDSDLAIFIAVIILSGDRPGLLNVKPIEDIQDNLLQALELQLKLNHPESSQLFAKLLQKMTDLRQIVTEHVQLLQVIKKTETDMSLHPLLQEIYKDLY

Compound	IC50 (PPARγ [1])	3xPPRE luciferase reporter in HEK293 cells, antagonism of Rosi activation (PPARγ [2])
N#Cc1c(C2CCCCC2)nc(Sc2ccc(C(F)(F)F)cc2[N+](=O)[O-])[nH]c1=O [TPMD, 4-cyclohexyl-2-((2-nitro-4-(trifluoromethyl)phenyl)thio)-6-oxo-1,6-dihydropyrimidine-5-carbonitrile]	~5 µM	–
O=C(Nc1ccccc1)c1cc([N+](=O)[O-])ccc1Cl [GW, GW9662]	–	GW9662 significantly diminished the activation of 3xPPRE reporter by Rosi
